Experimental data: patent US11559575B2, “Multi-epitopic peptide compounds and vaccines against leishmaniasis” (INSTITUT DE RECHERCHE POUR LE DEVELOPPEMENT, priority 2018, dated 2023)
Entries after “also recorded” stand apart in the source; their conditions may differ.

Test system: HLA alleles of class II
Experiment: Affinity of epitopes for HLA alleles of class II
Assay type: binding, human
Conditions: for Concatenation affinity for the HLA alleles of class II: H2B-II peptides
Source text: The multiepitopic peptide compounds (24 to 40-mer), having a high affinity with a maximized number of HLA molecules of class I and of class II, such as the affinities for the alleles HLA of class I and HLA of class II of the epitopes in the peptides of the sequences SEQ ID NO: 22, 23, 65, 66, 69, 73, 77, 96, 97, 137, 138, and 157, 185, have a high immunoprevalent potential corresponding to an optimal vaccine coverage, in particular for the populations concerned. The degree of coverage of the peptide compounds of the invention show a very high added value compared with the peptides of the prior art.

RKVQEEVFDLFTDVH (Leishmania major) [SEQ ID NO: 111]
Concatenation affinity for HLA alleles of class II (LmlRAB-IIB peptides, Table 2): HLA-DRB1*03:01, HLA-DRB1*04:01,; also recorded: HLA-DPA1*02:01/DPB1*05:01,; also recorded: HLA-DPA1*03:01/DPB1*04:02

RLHSVVGRHLSIVAD (Leishmania major) [SEQ ID NO: 80]
Concatenation affinity for HLA alleles of class II (LmLRAB-IIA peptides, Table 2): HLA-DRB1*07:01,; also recorded: HLA-DRB1*15:01,; also recorded: HLA-DRB5*01:01,; also recorded: HLA-DRB1*11:01,; also recorded: HLA-DRB1*09:01,

RSENAIVTSRKVQEE (Leishmania major) [SEQ ID NO: 112]
Concatenation affinity for HLA alleles of class II (LmlRAB-IIB peptides, Table 2): HLA-DRB1*01:01, HLA-DRB1*03:01,; also recorded: HLA-DRB1*07:01, HLA-DRB1*11:01,; also recorded: HLA-DRB5*01:01

RSGEGYFLT (listed as Leishmania infantum) [SEQ ID NO: 149]
Concatenation affinity for HLA alleles of class II (PSA KC-2.6 core, Table 3): HLA-DRB1*03:01,; also recorded: HLA-DRB3*01:01

RSGEGYFLTDEKTSL (listed as Leishmania infantum) [SEQ ID NO: 143]
Concatenation affinity for HLA alleles of class II (PSA KC-2.6 peptides, Table 3): HLA-DRB1*01:01, HLA-DRB1*03:01,; also recorded: HLA-DRB1*04:01, HLA-DRB3*01:01,; also recorded: HLA-DPA1*03:01/DPB1*14:01

RSLKAINAWMSMSHR (RSLKAINAQMSMSHR; Leishmania major) [SEQ ID NO: 36]
Concatenation affinity for the HLA alleles of class II (Table 1): HLA-DRB1*04:01, HLA-DRB1*15:01, HLA-DRB1*05:01,; also recorded: HLA-DRB1*01:01, HLA-DRB1*04:05, HLA-DRB1*07:01,; also recorded: HLA-DRB1*08:02, HLA-DRB1*09:01, HLA-DRB1*11:01,; also recorded: HLA-DRB4*01:01,

RSWNVYVGRSLKAIN (Leishmania major) [SEQ ID NO: 28]
Concatenation affinity for the HLA alleles of class II (Table 1): HLA-DRB5*01:01, HLA-DRB1*01:01, HLA-DRB1*03:01,; also recorded: HLA-DRB1*04:01, HLA-DRB1*11:01, HLA-DRB1*13:02,; also recorded: HLA-DRB1*04:05, HLA-DRB1*07:01, HLA-DRB1*09:01,; also recorded: HLA-DRB1*15:01, HLA-DPA1*02:01/DPB1*01:01,; also recorded: HLA-DRB1*08:02

SDYSHSMIRDLDFSN (listed as Leishmania infantum) [SEQ ID NO: 166]
Concatenation affinity for HLA alleles of class II (PSA KC-2.7 peptides, Table 3): HLA-DRB1*04:05, HLA-DRB1*07:01,; also recorded: HLA-DRB1*12:01, HLA-DRB1*09:01,; also recorded: HLA-DRB4*01:01,; also recorded: HLA-DPA1*02:01/DPB1*14:01

SENAIVTSRKVQEEV (Leishmania major) [SEQ ID NO: 113]
Concatenation affinity for HLA alleles of class II (LmlRAB-IIB peptides, Table 2): HLA-DRB1*03:01, HLA-DRB1*07:01,; also recorded: HLA-DRB1*08:02, HLA-DRB1*11:01,; also recorded: HLA-DRB1*12:01

SGEGYFLTDEKTSLV (listed as Leishmania infantum) [SEQ ID NO: 144]
Concatenation affinity for HLA alleles of class II (PSA KC-2.6 peptides, Table 3): HLA-DRB1*01:01, HLA-DRB1*03:01,; also recorded: HLA-DRB1*04:01, HLA-DRB1*04:05,; also recorded: HLA-DRB1*07:01, HLA-DRB1*11:01,; also recorded: HLA-DRB3*01:01, HLA-DRB3*02:02,; also recorded: HLA-DPA1*02:01/DPB1*01:01

SGSDYSHSMIRDLDF (listed as Leishmania infantum) [SEQ ID NO: 167]
Concatenation affinity for HLA alleles of class II (PSA KC-2.7 peptides, Table 3): HLA-DRB1*01:01, HLA-DRB1*04:05,; also recorded: HLA-DRB1*07:01, HLA-DRB1*09:01,; also recorded: HLA-DRB5*01:01,; also recorded: HLA-DPA1*02:01/DPB1*14:01

SHSMIRDLDGSNMGL (SHSMIRDLDFSNMGL; listed as Leishmania infantum) [SEQ ID NO: 168]
Concatenation affinity for HLA alleles of class II (PSA KC-2.7 peptides, Table 3): HLA-DRB1*03:01, HLA-DRB1*04:01,; also recorded: HLA-DRB1*04:05, HLA-DRB1*08:02,; also recorded: HLA-DRB1*12:01, HLA-DRB4*01:01

SLKAINAQMSMSHRT (Leishmania major) [SEQ ID NO: 37]
Concatenation affinity for the HLA alleles of class II (Table 1): HLA-DRB1*07:01, HLA-DRB1*04:01, HLA-DRB1*04:05,; also recorded: HLA-DRB1*09:01, HLA-DRB1*11:01, HLA-DRB1*15:01,; also recorded: HLA-DRB5*01:01, HLA-DRB1*01:01, HLA-DRB1*08:02,; also recorded: HLA-DRB4*01:01,

SRKVQEEVFDLFTDV (Leishmania major) [SEQ ID NO: 114]
Concatenation affinity for HLA alleles of class II (LmlRAB-IIB peptides, Table 2): HLA-DRB1*03:01, HLA-DPA1*01:03/DPB1*02:01,; also recorded: HLA-DPA1*02:01/DPB1*05:01,; also recorded: HLA-DPA1*03:01/DPB1*04:02

SVVGRHLSIVADHMP (Leishmania major) [SEQ ID NO: 83]
Concatenation affinity for HLA alleles of class II (LmLRAB-IIA peptides, Table 2): HLA-DRB1*15:01

SWNVYVGRSLKAINA (Leishmania major) [SEQ ID NO: 29]
Concatenation affinity for the HLA alleles of class II (Table 1): HLA-DRB5*01:01, HLA-DRB1*04:05, HLA-DPA1*03:01/; also recorded: DPB1*04:02, HLA-DRB1*01:01, HLA-DRB1*03:01,; also recorded: HLA-DRB1*04:01, HLA-DRB1*11:01, HLA-DRB1*13:02,; also recorded: HLA-DRB1*07:01, HLA-DRB1*09:01, HLA-DRB1*15:01,; also recorded: HLA-DPA1*02:01/DPB1*01:01, HLA-DRB1*08:02

TSRKVQEEVFDLFTD (Leishmania major) [SEQ ID NO: 115]
Concatenation affinity for HLA alleles of class II (LmlRAB-IIB peptides, Table 2): HLA-DRB1*03:01, HLA-DPA1*01:03/DPB1*02:01,; also recorded: HLA-DPA1*02:01/DPB1*05:01,; also recorded: HLA-DPA1*03:01/HLA-DPB1*04:02,; also recorded: HLA-DPA1*02:01/HLA-DPB1*14:01

VGRHLSIVA (Leishmania major) [SEQ ID NO: 91]
Concatenation affinity for HLA alleles of class II (LmLRAB-IIA core, Table 2): HLA-DRB1*15:01

VGRHLSIVADHMPHL (Leishmania major) [SEQ ID NO: 85]
Concatenation affinity for HLA alleles of class II (LmLRAB-IIA peptides, Table 2): HLA-DRB1*03:01,; also recorded: HLA-DRB3*01:01,; also recorded: HLA-DRB1*13:02,; also recorded: HLA-DRB1*15:01,

VGRSLKAIN (Leishmania major) [SEQ ID NO: 51]
Affinity HLA alleles of class II (H2B-II core epitopes, Table 1): HLA-DRB1*03:01,; also recorded: HLA-DRB1*04:05,; also recorded: HLA-DRB1*08:02,; also recorded: HLA-DRB1*11:01

VGRSLKAINAWMSMS (VGRSLKAINAQMSMS; Leishmania major) [SEQ ID NO: 34]
Concatenation affinity for the HLA alleles of class II (Table 1): HLA-DRB1*01:01, HLA-DRB1*04:05, HLA-DRB1*07:01,; also recorded: HLA-DRB1*09:01, HLA-DRB4*01:01, HLA-DRB5*01:01,; also recorded: HLA-DRB1*04:01, HLA-DRB1*08:02, HLA-DRB1*11:01,; also recorded: HLA-DRB1*13:02
